What follows are compounds tested against T1, human kinase Mps-1 (Homo sapiens, UniProt P33981) (assay: Mps-1 kinase assay (HTRF)). Details: lowATP; mean; read-out: Mps1 lowATP mean IC50.
T1 construct: N-terminally GST-tagged human full length recombinant Mps-1 kinase; purchased Invitrogen, Karslruhe, Germany PV4071
T1 sequence (P33981 1-857): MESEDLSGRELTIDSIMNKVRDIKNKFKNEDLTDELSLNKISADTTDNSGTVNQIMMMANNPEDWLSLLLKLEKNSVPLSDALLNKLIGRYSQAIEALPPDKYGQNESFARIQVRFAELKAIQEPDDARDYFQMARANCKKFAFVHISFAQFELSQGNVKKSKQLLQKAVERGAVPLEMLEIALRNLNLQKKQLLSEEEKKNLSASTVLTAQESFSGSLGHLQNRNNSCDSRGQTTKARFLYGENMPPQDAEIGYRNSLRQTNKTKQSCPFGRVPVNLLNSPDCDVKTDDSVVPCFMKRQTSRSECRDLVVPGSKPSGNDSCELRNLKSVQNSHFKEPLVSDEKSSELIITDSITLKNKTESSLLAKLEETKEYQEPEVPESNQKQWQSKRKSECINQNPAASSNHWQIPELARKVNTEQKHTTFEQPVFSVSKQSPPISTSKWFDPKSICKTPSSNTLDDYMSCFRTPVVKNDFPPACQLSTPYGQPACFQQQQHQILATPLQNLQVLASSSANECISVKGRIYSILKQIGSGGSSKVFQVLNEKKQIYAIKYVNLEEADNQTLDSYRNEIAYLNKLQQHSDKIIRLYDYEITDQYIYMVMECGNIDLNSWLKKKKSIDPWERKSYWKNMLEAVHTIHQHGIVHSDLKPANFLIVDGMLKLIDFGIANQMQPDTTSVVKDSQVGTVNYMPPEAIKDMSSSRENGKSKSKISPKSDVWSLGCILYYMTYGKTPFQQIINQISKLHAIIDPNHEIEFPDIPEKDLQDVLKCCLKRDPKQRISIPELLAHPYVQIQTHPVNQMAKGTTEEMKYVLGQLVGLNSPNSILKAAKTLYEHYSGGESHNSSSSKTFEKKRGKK
Format: biochemical
Experimental: The human kinase Mps-1 phosphorylates a biotinylated substrate peptide. Detection of the phosphorylated product is achieved by homogenous time-resolved fluorescence resonance energy transfer (HTRF) from Europium-labelled anti-phospho-Serine/Threonine antibody as donor to streptavidin labelled with cross-linked allophycocyanin (SA-XLent) as acceptor. Compounds are tested for their inhibition of the kinase activity.
N-terminally GST-tagged human full length recombinant Mps-1 kinase (purchased from Invitrogen, Karslruhe, Germany, cat. no PV4071) was used. As substrate for the kinase reaction a biotinylated peptide of the amino-acid sequence PWDPDDADITEILG (C-terminus in amide form, purchased from Biosynthan GmbH, Berlin) was used.
For the assay 50 nl of a 100-fold concentrated solution of the test compound in DMSO was pipetted into a black low volume 384 well microtiter plate (Greiner Bio-One, Frickenhausen, Germany), 2 μl of a solution of Mps-1 in assay buffer [0.1 mM sodium-ortho-vanadate, 10 mM MgCl2, 2 mM DTT, 25 mM Hepes pH 7.7, 0.05% BSA, 0.001% Pluronic F-127] were added and the mixture was incubated for 15 min at 22° C. to allow pre-binding of the test compounds to Mps-1 before the start of the kinase reaction. Then the kinase reaction was started by the addition of 3 μl of a solution of 16.7 μM ATP and 1.67 μM peptide in assay buffer and the resulting mixture was incubated for a reaction time of 60 min at 22° C. The concentration of Mps-1 in the assay was adjusted to the activity of the enzyme lot and was chosen appropriate to have the assay in the linear range, typical enzyme concentrations were in the range of about 1 nM (final conc. in the 5 μl assay volume). The reaction was stopped by the addition of 3 μl of a solution of HTRF detection reagents (100 mM Hepes pH 7.4, 0.1% BSA, 40 mM EDTA, 140 nM Streptavidin-XLent [#61GSTXLB, Fa. Cis Biointernational, Marcoule, France], 1.5 nM anti-phospho(Ser/Thr)-Europium-antibody [#AD0180, PerkinElmer LAS, Rodgau-Jügesheim, Germany].
The resulting mixture was incubated 1 h at 22° C. to allow the binding of the phosphorylated peptide to the anti-phospho(Ser/Thr)-Europium-antibody. Subsequently the amount of phosphorylated substrate was evaluated by measurement of the resonance energy transfer from the Europium-labelled anti-phospho(Ser/Thr) antibody to the Streptavidin-XLent. Therefore, the fluorescence emissions at 620 nm and 665 nm after excitation at 350 nm was measured in a HTRF reader, e.g. a Rubystar (BMG Labtechnologies, Offenburg, Germany) or a Viewlux (PerkinElmer LAS, Rodgau-Jügesheim, Germany). The ratio of the emissions at 665 nm and at […] was taken as the measure for the amount of phosphorylated substrate. The data were normalised (enzyme reaction without inhibitor=0% inhibition, all other assay components but no enzyme=100% inhibition).

Going from O=C(NC1CC1)c1ccc(-c2cnc3c(NC[C@@H](O)CO)nc4ccc(F)cc4n23)cc1Cl (stereo in doubt) [Example 2-87, 2-chloro-N-cyclopropyl-4-{4-[(2,3-dihydroxypropyl)amino]-8-fluoroimidazo[1,2-a]quinoxalin-1-yl}benzamide] to Cc1cc2nc(NC[C@@H](O)CO)c3ncc(-c4ccc(C(=O)NC5CC5)cc4)n3c2cc1C (stereo in doubt) [Example 2-158, N-cyclopropyl-4-{4-[(2,3-dihydroxypropyl)amino]-7,8-dimethylimidazo[1,2-a]quinoxalin-1-yl}benzamide], the IC50 falls from 12.2 µM to 0.0124 µM (980-fold).

Compared with CC(C)CNc1nc2ccccc2n2c(-c3ccc(NC(=O)Nc4ccc(CN5CCN(C)CC5)c(C(F)(F)F)c4)cc3)cnc12 [Example 1-1, 1-[4-(4-isobutylamino-imidazo[1,2-a]quinoxalin-1-yl)-phenyl]-3-[4-(4-methyl-piperazin-1-ylmethyl)-3-trifluoromethyl-phenyl]-urea], CCNC(=O)Nc1ccc(-c2cnc3c(NCC(C)C)nc4ccccc4n23)cc1 [Example 1-3, 1-ethyl-3-[4-(4-isobutylamino-imidazo[1,2-a]quinoxalin-1-yl)-phenyl]-urea] is 360-fold higher in IC50: 0.0559 µM for the first, 20 µM for the second.

First: CC(C)CNc1nc2ccccc2n2c(-c3ccc(C(=O)NC4CC4)cc3)cnc12 [Example 1-2, N-cyclopropyl-4-(4-isobutylamino-imidazo[1,2-a]quinoxalin-1-yl)-benzamide]
Second: CNC(=O)c1ccc(-c2cnc3c(NCC(C)C)nc4ccccc4n23)cc1 [Example 1-17, N-methyl-4-{4-[(2-methylpropyl)amino]imidazo[1,2-a]quinoxalin-1-yl}benzamide]
The IC50 of the first is 15-fold lower: 0.0124 µM for the first, 0.192 µM for the second. The first is the more potent here.

CC(C)CNc1nc2ccccc2n2c(-c3ccc4c(c3)OCCO4)cnc12 [Example 1-4, 1-(2,3-dihydro-1,4-benzodioxin-6-yl)-N-(2-methylpropyl)imidazo[1,2-a]quinoxalin-4-amine] and CC(C)CNc1nc2ccccc2n2c(-c3ccc4cc[nH]c4c3)cnc12 [Example 1-13, 1-(1H-indol-6-yl)-N-(2-methylpropyl)imidazo[1,2-a]quinoxalin-4-amine] are within 1.5-fold of each other in IC50: 2.86 µM for the first, 2.01 µM for the second.

Compared with CC(C)CNc1nc2ccccc2n2c(-c3ccc(C(=O)O)cc3)cnc12 [Example 1-5, 4-{4-[(2-methylpropyl)amino]imidazo[1,2-a]quinoxalin-1-yl}benzoic acid], CC(C)CNc1nc2ccccc2n2c(-c3ccc(C(N)=O)cc3)cnc12 [Example 1-15, 4-{4-[(2-methylpropyl)amino]imidazo[1,2-a]quinoxalin-1-yl}benzamide] is 30-fold lower in IC50: 11.9 µM for the first, 0.399 µM for the second. The second is the more potent here.

Compared with CC(C)CNc1nc2ccccc2n2c(-c3ccccc3)cnc12 [Example 1-6, N-(2-methylpropyl)-1-phenylimidazo[1,2-a]quinoxalin-4-amine], Cc1ccccc1-c1cnc2c(NCC(C)C)nc3ccccc3n12 [Example 1-11, 1-(2-methylphenyl)-N-(2-methylpropyl)imidazo[1,2-a]quinoxalin-4-amine] is 1.7-fold higher in IC50: 8.18 µM for the first, 13.9 µM for the second.

Compared with Cc1ccc(-c2cnc3c(NCC(C)C)nc4ccccc4n23)cc1 [Example 1-7, 1-(4-methylphenyl)-N-(2-methylpropyl)imidazo[1,2-a]quinoxalin-4-amine], CSc1ccc(-c2cnc3c(NCC(C)C)nc4ccccc4n23)cc1 [Example 1-10, N-(2-methylpropyl)-1-[4-(methylsulfanyl)phenyl]imidazo[1,2-a]quinoxalin-4-amine] is 1.6-fold lower in IC50: 5.36 µM for the first, 3.34 µM for the second. The second is the more potent here.

First: COc1cccc(-c2cnc3c(NCC(C)C)nc4ccccc4n23)c1F [Example 1-8, 1-(2-fluoro-3-methoxyphenyl)-N-(2-methylpropyl)imidazo[1,2-a]quinoxalin-4-amine]
Second: CC(C)CNc1nc2ccccc2n2c(-c3cccnc3F)cnc12 [Example 1-14, 1-(2-fluoropyridin-3-yl)-N-(2-methylpropyl)imidazo[1,2-a]quinoxalin-4-amine]
The IC50 of the first is 1.8-fold higher: 17.3 µM for the first, 9.73 µM for the second. The second is the more potent here.

Going from CC(C)CNc1nc2ccccc2n2c(-c3ccc(C(=O)N(C)C)cc3)cnc12 [Example 1-9, N,N-dimethyl-4-{4-[(2-methylpropyl)amino]imidazo[1,2-a]quinoxalin-1-yl}benzamide] to CC(=O)c1ccc(-c2cnc3c(NCC(C)C)nc4ccccc4n23)cc1 [Example 1-24, 1-(4-{4-[(2-methylpropyl)amino]imidazo[1,2-a]quinoxalin-1-yl}phenyl)ethanone], the IC50 falls from 15.2 µM to 2.6 µM (5.8-fold).

First: COc1ncc(-c2cnc3c(NCC(C)C)nc4ccccc4n23)cn1 [Example 1-12, 1-(2-methoxypyrimidin-5-yl)-N-(2-methylpropyl)imidazo[1,2-a]quinoxalin-4-amine]
Second: CC(C)CNc1nc2ccccc2n2c(-c3cnn(C)c3)cnc12 [Example 1-18, N-(2-methylpropyl)-1-(1-methyl-1H-pyrazol-4-yl)imidazo[1,2-a]quinoxalin-4-amine]
The IC50 of the first is 2.2-fold lower: 5.54 µM for the first, 12.1 µM for the second.

Going from CC(C)CNc1nc2ccccc2n2c(-c3ccc(C(=O)N4CCCC4)cc3)cnc12 [Example 1-16, (4-{4-[(2-methylpropyl)amino]imidazo[1,2-a]quinoxalin-1-yl}phenyl)(pyrrolidin-1-yl)methanone] to CC(C)CNc1nc2ccccc2n2c(-c3ccc(CO)cc3)cnc12 [Example 1-27, (4-{4-[(2-methylpropyl)amino]imidazo[1,2-a]quinoxalin-1-yl}phenyl)methanol], the IC50 falls from 3.67 µM to 1.68 µM (2.2-fold). The second is the more potent here.

CC(C)CNc1nc2ccccc2n2c(-c3cccc4cnccc34)cnc12 [Example 1-19, 1-(isoquinolin-5-yl)-N-(2-methylpropyl)imidazo[1,2-a]quinoxalin-4-amine] and CC(C)CNc1nc2ccccc2n2c(-c3ccccc3F)cnc12 [Example 1-26, 1-(2-fluorophenyl)-N-(2-methylpropyl)imidazo[1,2-a]quinoxalin-4-amine] are within 1.5-fold of each other in IC50: 11.8 µM for the first, 9.14 µM for the second.

First: CNC(=O)c1cccc(-c2cnc3c(NCC(C)C)nc4ccccc4n23)c1 [Example 1-20, N-methyl-3-{4-[(2-methylpropyl)amino]imidazo[1,2-a]quinoxalin-1-yl}benzamide]
Second: CC(C)CNc1nc2ccccc2n2c(-c3ccsc3)cnc12 [Example 1-22, N-(2-methylpropyl)-1-(thiophen-3-yl)imidazo[1,2-a]quinoxalin-4-amine]
The IC50 of the first is 3.4-fold higher: 17.4 µM for the first, 5.14 µM for the second.

Going from CC(C)CNc1nc2ccccc2n2c(-c3cccs3)cnc12 [Example 1-21, N-(2-methylpropyl)-1-(thiophen-2-yl)imidazo[1,2-a]quinoxalin-4-amine] to CC(C)CNc1nc2ccccc2n2c(-c3ccccc3C(F)(F)F)cnc12 [Example 1-23, N-(2-methylpropyl)-1-[2-(trifluoromethyl)phenyl]imidazo[1,2-a]quinoxalin-4-amine], the IC50 rises from 3.31 µM to 7.71 µM (2.3-fold).

For COc1ccc(-c2cnc3c(NCC(C)C)nc4ccccc4n23)cc1OC [Example 1-25, 1-(3,4-dimethoxyphenyl)-N-(2-methylpropyl)imidazo[1,2-a]quinoxalin-4-amine], the IC50 was 13.6 µM.
